From patent publication US8367086B1, “Process and product for inhibiting or preventing bacterial infections” (S.S. Steiner, Inc., priority 2004, dated 2013)
≈ marks a conversion by molar mass, not a printed value.

Tests used:
Experiment in all cases: minimum inhibitory concentration (MIC) method
Type in all cases: cell-based
B. megaterium = details: 37° C. 24 hours
Description: (§1) Another method of determining antimicrobial activity is to assess the Minimum inhibitory concentration (MIC) of the composition under test. […] Thereafter, increased concentrations will have a limiting effect on growth, until the concentration is reached where no growth relative to the control is observed. That point of no growth is the minimum inhibitory concentration. […] A positive control with the bacterium alone was prepared as well as an ethanol control. The tubes were incubated at 37° C. for 24 hours and growth of the bacterium was determined by observing the change in turbidity.

B. subtilis = details: 37° C. 24 hours
Description: as §1

S. salivarius = details: 37° C. 24 hours
Description: as §1

S. saprophyticus = details: Staphylococcus saprophyticus; exp 1; 37° C. 24 hours; read-out: MIC, agent alone
Description: as §1, with “turbidity. […] Since the filing of the original application Ser. […] Pseudomonas fluorescens, Pseudomonas aeruginosa, Proteus vulgaris, Serratia marcescens, Proteus mirabilis and Enterobacter clocae.” for “turbidity.”

In the case of `COc1cc(O)c(CC=C(C)C)c(O)c1C(=O)/C=C/c1ccc(O)cc1` [X, xanthohumol], the MIC (B. megaterium; Priestia megaterium, exp 2, read-out: MIC, agent alone) is reported as 10 µg/mL (≈ 28.2 µM), the “MIC, agent alone” value (B. megaterium; exp 1) is reported as 10 µg/mL (≈ 28.2 µM) and the MIC (B. subtilis; Bacillus subtilis, exp 1, read-out: MIC, agent alone) is reported as > 1 µg/mL. The “MIC, agent alone” value (B. subtilis; exp 1) was >1 µg/mL, the “MIC, agent alone” value (B. subtilis; exp 2) was >1 µg/mL and the MIC (S. salivarius; Streptococcus salivarius, exp 1, read-out: MIC, agent alone) was < 10 µg/mL. For the same molecule, the “MIC, agent alone” value (S. salivarius; exp 2) was <10 µg/mL and the MIC (S. saprophyticus) was 1 to 10 µg/mL (≈ 2.82 to 28.2 µM).
